What all share (experiment): Kinase inhibitor profiling, autophosphorylation
Type in all cases: biochemical

One assay concerns the target T1, PTK2B (Homo sapiens, UniProt Q14289).
T1 construct: specificity data for proteins generated from a library of eighteen full-length clones; host or cells: rabbit reticulocyte lysate, TnT coupled in vitro transcription/translation (cell-free)

A further assay has as its target T2, Tek (Mus musculus, UniProt Q02858).
T2 construct: specificity data for proteins generated from a library of eighteen full-length clones; host or cells: rabbit reticulocyte lysate, TnT coupled in vitro transcription/translation (cell-free)

The target of another assay is T3, EphB4 (Mus musculus, UniProt P54761).
T3 construct: specificity data for proteins generated from a library of eighteen full-length clones; host or cells: rabbit reticulocyte lysate, TnT coupled in vitro transcription/translation (cell-free)
T3 sequence (P54761 16-987): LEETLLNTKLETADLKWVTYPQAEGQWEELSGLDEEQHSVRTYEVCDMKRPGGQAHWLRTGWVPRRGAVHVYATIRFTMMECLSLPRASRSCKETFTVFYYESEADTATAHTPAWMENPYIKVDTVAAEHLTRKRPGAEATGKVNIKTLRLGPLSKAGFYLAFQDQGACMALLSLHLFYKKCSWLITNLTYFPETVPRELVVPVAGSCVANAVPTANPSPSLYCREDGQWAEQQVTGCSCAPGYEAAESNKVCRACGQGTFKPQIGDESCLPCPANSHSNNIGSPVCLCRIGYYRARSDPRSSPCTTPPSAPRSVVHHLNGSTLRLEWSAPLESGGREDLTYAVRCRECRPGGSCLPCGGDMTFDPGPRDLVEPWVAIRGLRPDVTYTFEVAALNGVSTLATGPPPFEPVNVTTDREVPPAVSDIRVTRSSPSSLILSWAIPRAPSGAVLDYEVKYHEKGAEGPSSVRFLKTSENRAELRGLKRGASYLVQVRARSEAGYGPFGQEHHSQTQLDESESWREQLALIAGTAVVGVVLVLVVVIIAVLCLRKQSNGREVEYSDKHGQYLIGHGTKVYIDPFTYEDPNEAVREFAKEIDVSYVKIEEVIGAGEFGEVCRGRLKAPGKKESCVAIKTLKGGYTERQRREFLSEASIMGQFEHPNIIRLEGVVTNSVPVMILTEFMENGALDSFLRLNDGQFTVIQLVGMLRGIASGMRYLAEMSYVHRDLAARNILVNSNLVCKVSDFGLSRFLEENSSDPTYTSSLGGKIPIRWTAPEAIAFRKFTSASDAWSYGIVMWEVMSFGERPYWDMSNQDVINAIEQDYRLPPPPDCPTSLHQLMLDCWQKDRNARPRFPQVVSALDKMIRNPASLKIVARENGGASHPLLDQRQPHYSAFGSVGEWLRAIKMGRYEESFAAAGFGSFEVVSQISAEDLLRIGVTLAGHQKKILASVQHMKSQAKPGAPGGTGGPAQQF

For the next assay, the target named is T4, Kit (Mus musculus, UniProt P05532).
T4 construct: specificity data for proteins generated from a library of eighteen full-length clones; biotin on random lysines (biotin-Lys-tRNA); host or cells: rabbit reticulocyte lysate, coupled transcription/translation (TnT, Promega)
T4 sequence (P05532 25-979): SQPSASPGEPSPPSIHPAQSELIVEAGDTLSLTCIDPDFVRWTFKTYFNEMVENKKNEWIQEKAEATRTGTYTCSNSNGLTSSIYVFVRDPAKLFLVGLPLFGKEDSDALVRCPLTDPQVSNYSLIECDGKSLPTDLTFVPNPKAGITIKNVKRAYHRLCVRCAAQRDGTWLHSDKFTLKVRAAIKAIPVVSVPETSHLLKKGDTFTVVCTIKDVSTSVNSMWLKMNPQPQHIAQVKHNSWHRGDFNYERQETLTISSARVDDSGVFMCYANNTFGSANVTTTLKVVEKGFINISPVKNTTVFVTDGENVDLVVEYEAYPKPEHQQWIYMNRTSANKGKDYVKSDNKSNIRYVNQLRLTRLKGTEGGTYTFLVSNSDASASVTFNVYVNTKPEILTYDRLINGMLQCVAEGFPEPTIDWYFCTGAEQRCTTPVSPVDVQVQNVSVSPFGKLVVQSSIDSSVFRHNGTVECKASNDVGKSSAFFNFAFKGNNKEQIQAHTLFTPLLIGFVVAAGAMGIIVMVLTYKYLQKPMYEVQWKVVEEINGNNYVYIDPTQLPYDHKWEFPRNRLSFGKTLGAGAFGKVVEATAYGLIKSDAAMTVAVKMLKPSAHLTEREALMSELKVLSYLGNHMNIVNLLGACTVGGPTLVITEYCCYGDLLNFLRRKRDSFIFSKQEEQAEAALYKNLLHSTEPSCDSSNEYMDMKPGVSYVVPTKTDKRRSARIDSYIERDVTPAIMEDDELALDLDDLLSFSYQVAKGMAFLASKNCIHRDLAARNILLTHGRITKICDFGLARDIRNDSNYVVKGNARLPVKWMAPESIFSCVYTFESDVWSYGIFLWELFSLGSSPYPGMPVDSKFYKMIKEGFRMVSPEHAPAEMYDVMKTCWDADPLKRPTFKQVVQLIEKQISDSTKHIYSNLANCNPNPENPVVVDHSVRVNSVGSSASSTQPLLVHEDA

T2 sequence (Q02858 23-1122): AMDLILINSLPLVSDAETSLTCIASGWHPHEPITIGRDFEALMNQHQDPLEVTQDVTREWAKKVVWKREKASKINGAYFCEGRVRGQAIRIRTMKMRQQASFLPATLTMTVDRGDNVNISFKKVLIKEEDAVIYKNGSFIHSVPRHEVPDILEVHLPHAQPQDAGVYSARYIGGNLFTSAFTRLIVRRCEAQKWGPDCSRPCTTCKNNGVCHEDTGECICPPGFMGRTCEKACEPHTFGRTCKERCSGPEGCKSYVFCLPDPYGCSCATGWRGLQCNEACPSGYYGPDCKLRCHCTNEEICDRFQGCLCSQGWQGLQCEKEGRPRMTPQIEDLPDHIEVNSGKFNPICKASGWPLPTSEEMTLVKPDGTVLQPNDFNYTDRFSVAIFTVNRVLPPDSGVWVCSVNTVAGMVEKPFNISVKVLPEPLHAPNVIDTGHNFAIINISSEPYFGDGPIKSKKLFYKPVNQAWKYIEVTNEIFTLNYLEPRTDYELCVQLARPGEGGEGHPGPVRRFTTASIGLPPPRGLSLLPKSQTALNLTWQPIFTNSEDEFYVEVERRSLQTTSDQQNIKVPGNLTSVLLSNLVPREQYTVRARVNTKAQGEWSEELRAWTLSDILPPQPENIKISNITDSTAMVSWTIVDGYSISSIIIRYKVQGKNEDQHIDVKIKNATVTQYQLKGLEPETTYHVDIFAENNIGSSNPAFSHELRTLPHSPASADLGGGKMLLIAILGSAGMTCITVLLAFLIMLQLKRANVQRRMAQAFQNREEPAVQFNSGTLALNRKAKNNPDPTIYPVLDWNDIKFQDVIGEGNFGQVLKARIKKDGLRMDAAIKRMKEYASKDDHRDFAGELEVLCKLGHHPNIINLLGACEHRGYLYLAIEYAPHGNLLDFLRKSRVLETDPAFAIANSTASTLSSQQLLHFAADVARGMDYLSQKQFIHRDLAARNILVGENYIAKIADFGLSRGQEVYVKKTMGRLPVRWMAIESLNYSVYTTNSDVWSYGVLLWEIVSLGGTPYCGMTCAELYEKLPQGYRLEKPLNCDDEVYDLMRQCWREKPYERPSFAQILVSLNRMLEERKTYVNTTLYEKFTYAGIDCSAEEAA
T1 sequence (Q14289 whole entry): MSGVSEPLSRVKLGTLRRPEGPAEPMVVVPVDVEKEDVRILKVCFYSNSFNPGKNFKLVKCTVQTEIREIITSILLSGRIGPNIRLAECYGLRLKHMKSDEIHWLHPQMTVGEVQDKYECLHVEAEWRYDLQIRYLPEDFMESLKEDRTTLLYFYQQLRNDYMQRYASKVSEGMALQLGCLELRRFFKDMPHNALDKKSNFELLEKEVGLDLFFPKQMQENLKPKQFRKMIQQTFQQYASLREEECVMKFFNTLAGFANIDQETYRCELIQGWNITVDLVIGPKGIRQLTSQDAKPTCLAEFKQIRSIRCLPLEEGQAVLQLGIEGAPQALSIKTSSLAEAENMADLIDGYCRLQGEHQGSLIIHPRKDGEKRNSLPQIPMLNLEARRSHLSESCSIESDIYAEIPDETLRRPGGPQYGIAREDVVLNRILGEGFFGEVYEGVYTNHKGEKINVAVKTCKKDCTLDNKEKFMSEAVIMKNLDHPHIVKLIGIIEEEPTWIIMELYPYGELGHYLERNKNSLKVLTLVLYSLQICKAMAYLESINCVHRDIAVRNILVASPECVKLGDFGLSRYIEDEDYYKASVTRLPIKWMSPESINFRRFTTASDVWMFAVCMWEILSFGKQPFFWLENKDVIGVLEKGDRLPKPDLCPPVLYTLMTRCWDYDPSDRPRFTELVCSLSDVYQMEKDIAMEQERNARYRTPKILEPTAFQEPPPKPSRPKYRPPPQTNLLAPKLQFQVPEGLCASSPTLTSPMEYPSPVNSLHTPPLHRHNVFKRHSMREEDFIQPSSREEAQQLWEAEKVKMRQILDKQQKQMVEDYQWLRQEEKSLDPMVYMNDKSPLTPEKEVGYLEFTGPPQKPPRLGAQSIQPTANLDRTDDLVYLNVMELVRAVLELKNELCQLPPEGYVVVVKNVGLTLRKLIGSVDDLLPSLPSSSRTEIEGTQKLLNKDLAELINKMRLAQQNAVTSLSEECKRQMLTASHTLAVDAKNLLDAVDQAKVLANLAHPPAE

Take `COc1c(C=O)c(O)cc2c1C(=O)c1ccccc1C2=O` [Damnacanthal]: the “Inhibition specificity towards Autophosphorylation at 10X IC50, PTK2B” value at PTK2B is “M (medium inhibition (“M”=between 25 to 50% of the activity remaining))”. For the same compound, at Tek, the “Inhibition specificity towards Autophosphorylation at 10X IC50, Tek” value is reported as “H (high inhibition (“H”=less than 25% of the activity remaining))”. Moreover, the “Inhibition specificity towards Autophosphorylation at 10X IC50, Ephb4” value on EphB4 is reported as “H (high inhibition (“H”=less than 25% of the activity remaining))”. Moreover, the “Inhibition specificity towards Autophosphorylation at 10X IC50, Kit” value on Kit was “H (high inhibition (“H”=less than 25% of the activity remaining))”.

With `Cc1cc2ncc(-c3ccc(O)c(O)c3)nc2cc1C` [AG-1433], the “Inhibition specificity towards Autophosphorylation at 10X IC50, PTK2B” value at PTK2B is recorded as “H (high inhibition (“H”=less than 25% of the activity remaining))”. The “Inhibition specificity towards Autophosphorylation at 10X IC50, Tek” value at Tek was “H (high inhibition (“H”=less than 25% of the activity remaining))”. Also, the “Inhibition specificity towards Autophosphorylation at 10X IC50, Ephb4” value on EphB4 was “H (high inhibition (“H”=less than 25% of the activity remaining))”. Moreover, at Kit, the “Inhibition specificity towards Autophosphorylation at 10X IC50, Kit” value is listed as “H (high inhibition (“H”=less than 25% of the activity remaining))”.

Consider `COc1cc2ncnc(Nc3ccc(O)cc3)c2cc1OC` [WHI-P131], for which the “Inhibition specificity towards Autophosphorylation at 10X IC50, Kit” value on Kit is “L (low inhibition (“L”=between 50–75% of the activity remaining))”.

For the compound `CC(C)(C)c1cc(C=C(C#N)C#N)cc(Br)c1O` [AG-1024], at Tek, the “Inhibition specificity towards Autophosphorylation at 10X IC50, Tek” value is reported as “M (medium inhibition (“M”=between 25 to 50% of the activity remaining))”.

Take `COc1cc2ncnc(Nc3ccc(Cl)cc3F)c2cc1OC` [VEGFR inhibitor]: the “Inhibition specificity towards Autophosphorylation at 10X IC50, Ephb4” value at EphB4 was “L (low inhibition (“L”=between 50–75% of the activity remaining))”.

On to Erbstatin analog, for which the “Inhibition specificity towards Autophosphorylation at 10X IC50, PTK2B” value on PTK2B was “L (low inhibition (“L”=between 50–75% of the activity remaining))”. Besides, at Tek, the “Inhibition specificity towards Autophosphorylation at 10X IC50, Tek” value is given as “L (low inhibition (“L”=between 50–75% of the activity remaining))”. Also, the “Inhibition specificity towards Autophosphorylation at 10X IC50, Ephb4” value at EphB4 was “L (low inhibition (“L”=between 50–75% of the activity remaining))”. At Kit, the “Inhibition specificity towards Autophosphorylation at 10X IC50, Kit” value is recorded as “L (low inhibition (“L”=between 50–75% of the activity remaining))”.

As for `COC(=O)c1ccc(NCc2cc(O)ccc2O)cc1` [AG-957], the “Inhibition specificity towards Autophosphorylation at 10X IC50, PTK2B” value on PTK2B is recorded as “L (low inhibition (“L”=between 50–75% of the activity remaining))”. The “Inhibition specificity towards Autophosphorylation at 10X IC50, Tek” value on Tek is on record as “M (medium inhibition (“M”=between 25 to 50% of the activity remaining))”. Also, the “Inhibition specificity towards Autophosphorylation at 10X IC50, Ephb4” value at EphB4 is “L (low inhibition (“L”=between 50–75% of the activity remaining))”. The “Inhibition specificity towards Autophosphorylation at 10X IC50, Kit” value at Kit was “L (low inhibition (“L”=between 50–75% of the activity remaining))”.

The record behind these values is patent US7063946B2, “Methods, reagents, kits and apparatus for protein function analysis” (Meso Scale Technologies, LLC., priority 2001, dated 2006).
